Measured values taken from paper PMC5923171, “Novel Zinc-Attenuating Compounds as Potent Broad-Spectrum Antifungal Agents with In Vitro and In Vivo Efficacy” (Antimicrobial Agents and Chemotherapy, 2018).
Values after ≈ are worked out from the molar mass of the structure shown.

How the values were obtained:
[1] = tested on: A. fumigatus AF54 (ΔzrfC); assay: Growth capacity in sRPMI zinc-limiting medium, 24-well plates; assay type: cell-based, Aspergillus fumigatus; conditions: average, either with or without simultaneous exposure to ZAC307 or ZAC989
Protocol: (§1) Growth capacity experiments with A. fumigatus strains AF14, AF54, AF48, AF732, and AF731 were performed in 24-well flat-bottomed tissue culture plates (35-3047; Falcon). A stock solution of 10 mM TPEN (P4413; Sigma) was prepared in pure ethanol. For these experiments, 5 mM stock solutions of ZAC307 and ZAC989 were prepared by dissolving each compound in 80% (vol/vol) ethanol. A 0.5 M stock solution of Na2EDTA·2H2O (1.08421.1000; Merck) was prepared in sterile water. A 1× stock solution (10.4 g/liter) of RPMI 1640 medium (R8755; Sigma) supplemented with 10 μM FeSO4·7H2O, 1 μM CuSO4·5H2O, and 1 μM MnCl2·H2O (sRPMI) was prepared under aseptic conditions and used as standard culture medium. In each well, 1 ml of culture medium containing sRPMI medium, Tween 20, ethanol (or the specified compound dissolved in 80% ethanol), and 10^5 conidia was dispensed to achieve final concentrations of 0.7×, 0.05% (vol/vol), 1.2% (vol/vol), and 10^5 conidia/ml, respectively. Plates were incubated for 44 h at 37°C in a humid atmosphere. To quantitate mycelial growth, each plate was scanned in an Agfa SnapScan 1236s scanner, and the intensity of the wells was quantified using the open-source image processing program Image J2. The data were represented and analyzed with Prism software 7.0.

[2] = tested on: A. fumigatus AF48 (ΔzrfA ΔzrfB); assay: as above; assay type: cell-based, Aspergillus fumigatus; conditions: 75 μM compound, 44 h, 37°C
Protocol: as §1

[3] = Potentiometric titration, deprotonation constant; assay type: physicochemical; conditions: DMSO-water (70:30, vol/vol), 25°C, 0.1 M NaClO4
Protocol: The Zn^2+-binding properties of ZAC307 and ZAC989 were further evaluated using a potentiometric assay, where pH is measured as a function of base (NaOH) added to the compound in either the absence or presence of metal. […] To determine the deprotonation constant, a solution of 1 mM ZAC307 or ZAC989 was titrated with 0.3 M NaOH at constant ionic strength (Fig. 2A and B). In a second run, the same titration was performed in the presence of 0.5 eq of Zn^2+ for ZAC307 and ZAC989. A shift in the pH curve in the presence of the metal (ZAC307, 0.5 eq of Zn^2+ [Fig. 2A]) compared to the absence of the metal (ZAC307 [Fig. 2A]) indicates binding of Zn^2+ to the compound. The measured pH data were analyzed with the Hyperquad program suite, taking into account all relevant equilibrium constants, including also the constants for metal hydroxylation. The analysis provides the pKa values and metal complex stability constants, as well as ligand-metal complex speciation calculation, indicating how many ZAC molecules are involved in coordinating the Zn^2+ ion at different pH values. […] ZAC989 bound copper with the formation constants log β1, log β2, and log β3 of 7.83, 13.37, and 20.62, respectively. The most dominant ZAC989-copper stoichiometry was a 3:1 stoichiometry (Fig. 2E).
Potentiometric measurements were carried out in DMSO-water (70:30, vol/vol) at 25°C as described previously ([22]). […]

[4] = tested on: wild-type A. fumigatus strain (AF14); assay: Growth capacity in sRPMI zinc-limiting medium, 24-well plates; assay type: cell-based, Aspergillus fumigatus; conditions: 75 μM compound, 44 h, 37°C
Protocol: The ZACs inhibited these molds and mucorales isolates in a range from 0.4 μg/ml to 5.4 μg/ml (Table 3). To assess the capacity of the ZACs to inhibit A. fumigatus growth in the presence of zinc, 1-ml aliquots of sRPMI zinc-limiting medium (RPMI 1640 medium [R8755; Sigma] supplemented with 10 μM FeSO4·7H2O, 1 μM CuSO4·5H2O, and 1 μM MnCl2·H2O) or this medium supplemented with 2, 5, or 50 μM zinc were inoculated with 10^5 conidia of a wild-type A. fumigatus strain (AF14), dispensed in 24-well culture plates, and incubated in the presence of either ZAC307 or ZAC989 at a final concentration 21 μg/ml or 27 μg/ml (equivalent to 75 μM), respectively (Fig. 5A).
Growth capacity experiments with A. fumigatus strains AF14, AF54, AF48, AF732, and AF731 were performed in 24-well flat-bottomed tissue culture plates (35-3047; Falcon). A stock solution of 10 mM TPEN (P4413; Sigma) was prepared in pure ethanol. For these experiments, 5 mM stock solutions of ZAC307 and ZAC989 were prepared by dissolving each compound in 80% (vol/vol) ethanol. A 0.5 M stock solution of Na2EDTA·2H2O (1.08421.1000; Merck) was prepared in sterile water. […] To quantitate mycelial growth, each plate was scanned in an Agfa SnapScan 1236s scanner, and the intensity of the wells was quantified using the open-source image processing program Image J2. The data were represented and analyzed with Prism software 7.0.

[5] = tested on: Aspergillus fumigatus ATCC 13073; assay: Antifungal susceptibility testing (MIC); assay type: cell-based; conditions: ATCC13073, no visible growth, 48 to 72 h, 34°C
Protocol: (§2) Antifungal susceptibility testing was carried out as described previously ([38], [39]), with a few modifications. Briefly, for each yeast or mold growth inhibition assay, frozen stocks of yeast cells or spores were diluted to a final concentration of 0.5 × 10^5 to 2.5 × 10^5 CFU/ml in sterile water. ZAC989, ZAC307, and ZAC623 were dissolved in DMSO to 10 mM stocks from which half-log serial dilutions were prepared. Growth assays were subsequently performed by pipetting 3 μl of compound dissolved in DMSO (giving a final concentration of 1.5% DMSO), 100 μl of cell-spore suspension, and 97 μl of 2× RPMI medium (20.8 g/liter of RPMI 1640 medium, 69.06 g/liter of morpholinepropanesulfonic acid [MOPS], 36 g/liter of glucose) into a microtiter plate that was incubated for 24 h (yeasts) or 48 to 72 h (molds) at 34°C. Fungal growth was determined spectrophotometrically by optical density reading of each well at a wavelength of 492 nm on a Victor X5 (Perkin-Elmer) plate reader. […] Standard errors between repeated experiments were generally below 5%. The growth effect of exogenous addition of various divalent metals was evaluated by performing the antifungal susceptibility assay in the presence of 5 μM ZAC989 or ZAC307 and with increasing concentrations (0.003 to 50 μM) of ZnSO4, CuSO4, (NH4)2Fe(SO4)2, MgCl2, and CaCl2.

[6] = tested on: Rhizopus microsporus ATCC 66276; assay: Antifungal susceptibility testing (MIC); assay type: cell-based; conditions: ATCC66276, no visible growth, 48 to 72 h, 34°C
Protocol: as §2

[7] = tested on: Mucor indicus ATCC MYA-4678; assay: Antifungal susceptibility testing (MIC); assay type: cell-based; conditions: no visible growth, 48 to 72 h, 34°C
Protocol: as §2

SMILES | reduction of growth capacity at 2 μM zinc compared to 50 μM zinc [1] [fold] | reduction of growth capacity, 2 μM zinc plus compound compared to 50 μM zinc [2] [fold] | pKa [3] | reduction of growth capacity, 2 μM zinc plus compound compared to 50 μM zinc [4] [fold] | MIC [5] [µg/mL] | MIC [6] [µg/mL] | MIC [7] [µg/mL]
Cc1cc(O)n(-c2cc(N3CC[C@H](Oc4cnccc4C#N)C3)ncn2)n1 [ZAC989, 3-[(3S)-1-[6-(5-hydroxy-3-methyl-pyrazol-1-yl)pyrimidin-4-yl]pyrrolidin-3-yl]oxy-pyridine-4-carbonitrile] | 24.6 | 4.5 | 7.7 | 3.9 | 5.4 (≈ 14.9 µM) | 0.5 (≈ 1.38 µM) | 1.1 (≈ 3.03 µM)
CN(C)c1cc(-n2nc(-c3ccccc3)cc2O)ncn1 [ZAC307, 2-[6-(dimethylamino)pyrimidin-4-yl]-5-phenyl-pyrazol-3-ol] | 24.6 | 3.9 | 6.84 | 2.9 | 4 (≈ 14.2 µM) | 0.4 (≈ 1.42 µM) | 1.3 (≈ 4.62 µM)
